Laboratory results from patent publication US12692264B2, “Pyrimidine or pyridine derivative, preparation method therefor, and application thereof in pharmacy” (ABBISKO THERAPEUTICS CO., LTD., priority 2021, dated 2026).
pIC50: −log10 of the molar value.

What was measured:
Format in all cases: cell-based
[1] = system: A431 (EGFR-WT); assay: Cell proliferation study (CellTiter-Glo, 72 hrs), A431; settings: Homo sapiens, A-431, A431 cells, CTG, * = average of multiple measurements
How it was run: (§1)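 Cells were seeded overnight, then exposed for 72 hrs at 37 °C, 5% CO2 to 9 concentrations in 3.16-fold steps, 0.1% DMSO final, triplicate wells. Viability was read by CellTiter-Glo luminescence, with a T0 plate read at dosing. IC50 came from nonlinear sigmoidal dose-response fits.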

[2] = biological target: Ba/F3 EGFR-D770-N771ins_SVD (Homo sapiens, UniProt P00533, DUP768-770, cells depend on it); assay: Cell proliferation study (CellTiter-Glo, 72 hrs), Ba/F3 EGFR-D770-N771ins_SVD; settings: CTG, * = average of multiple measurements, read-out: Ba/F3 EGFR-D770-N771ins_SVD IC50
Ba/F3 EGFR-D770-N771ins_SVD, sequence (P00533 with tags, fused parts or gaps DUP768-770): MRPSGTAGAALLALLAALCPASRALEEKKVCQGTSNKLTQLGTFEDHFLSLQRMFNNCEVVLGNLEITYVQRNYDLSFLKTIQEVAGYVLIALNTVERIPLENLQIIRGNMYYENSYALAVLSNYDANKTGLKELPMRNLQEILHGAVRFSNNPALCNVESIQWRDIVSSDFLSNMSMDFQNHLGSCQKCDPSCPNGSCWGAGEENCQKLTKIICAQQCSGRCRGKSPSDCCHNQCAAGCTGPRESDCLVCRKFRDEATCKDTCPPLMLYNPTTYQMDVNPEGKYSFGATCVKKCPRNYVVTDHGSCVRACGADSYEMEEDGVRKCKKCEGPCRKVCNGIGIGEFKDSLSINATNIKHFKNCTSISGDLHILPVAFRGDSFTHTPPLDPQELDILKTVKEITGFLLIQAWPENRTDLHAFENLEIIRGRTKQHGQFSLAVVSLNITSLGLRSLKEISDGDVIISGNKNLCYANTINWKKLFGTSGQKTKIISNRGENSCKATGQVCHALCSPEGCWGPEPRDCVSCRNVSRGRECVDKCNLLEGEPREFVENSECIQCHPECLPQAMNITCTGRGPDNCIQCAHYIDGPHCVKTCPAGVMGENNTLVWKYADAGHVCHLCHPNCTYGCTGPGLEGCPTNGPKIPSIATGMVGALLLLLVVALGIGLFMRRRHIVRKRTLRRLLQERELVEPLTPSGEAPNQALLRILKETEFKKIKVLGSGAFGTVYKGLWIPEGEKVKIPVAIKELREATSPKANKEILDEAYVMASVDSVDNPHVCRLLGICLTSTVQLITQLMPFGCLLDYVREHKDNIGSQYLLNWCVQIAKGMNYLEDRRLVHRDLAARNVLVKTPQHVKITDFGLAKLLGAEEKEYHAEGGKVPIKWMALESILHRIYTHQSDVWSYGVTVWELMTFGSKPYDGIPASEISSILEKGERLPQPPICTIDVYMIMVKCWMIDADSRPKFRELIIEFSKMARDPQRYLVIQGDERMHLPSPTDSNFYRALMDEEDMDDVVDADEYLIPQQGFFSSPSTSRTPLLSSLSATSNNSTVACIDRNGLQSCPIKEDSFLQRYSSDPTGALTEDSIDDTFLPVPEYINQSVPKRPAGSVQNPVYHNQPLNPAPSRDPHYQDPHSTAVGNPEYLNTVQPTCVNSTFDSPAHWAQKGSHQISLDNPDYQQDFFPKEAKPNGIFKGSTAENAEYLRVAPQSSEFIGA
How it was run: as §1

[3] = biological target: Ba/F3 EGFR-V769_D770insASV (Homo sapiens, UniProt P00533, DUP767-769, cells depend on it); assay: Cell proliferation study (CellTiter-Glo, 72 hrs), Ba/F3 EGFR-V769_D770insASV; settings: CTG, * = average of multiple measurements, read-out: Ba/F3 EGFR-V769_D770insASV IC50
Ba/F3 EGFR-V769_D770insASV, sequence (P00533 with tags, fused parts or gaps DUP767-769): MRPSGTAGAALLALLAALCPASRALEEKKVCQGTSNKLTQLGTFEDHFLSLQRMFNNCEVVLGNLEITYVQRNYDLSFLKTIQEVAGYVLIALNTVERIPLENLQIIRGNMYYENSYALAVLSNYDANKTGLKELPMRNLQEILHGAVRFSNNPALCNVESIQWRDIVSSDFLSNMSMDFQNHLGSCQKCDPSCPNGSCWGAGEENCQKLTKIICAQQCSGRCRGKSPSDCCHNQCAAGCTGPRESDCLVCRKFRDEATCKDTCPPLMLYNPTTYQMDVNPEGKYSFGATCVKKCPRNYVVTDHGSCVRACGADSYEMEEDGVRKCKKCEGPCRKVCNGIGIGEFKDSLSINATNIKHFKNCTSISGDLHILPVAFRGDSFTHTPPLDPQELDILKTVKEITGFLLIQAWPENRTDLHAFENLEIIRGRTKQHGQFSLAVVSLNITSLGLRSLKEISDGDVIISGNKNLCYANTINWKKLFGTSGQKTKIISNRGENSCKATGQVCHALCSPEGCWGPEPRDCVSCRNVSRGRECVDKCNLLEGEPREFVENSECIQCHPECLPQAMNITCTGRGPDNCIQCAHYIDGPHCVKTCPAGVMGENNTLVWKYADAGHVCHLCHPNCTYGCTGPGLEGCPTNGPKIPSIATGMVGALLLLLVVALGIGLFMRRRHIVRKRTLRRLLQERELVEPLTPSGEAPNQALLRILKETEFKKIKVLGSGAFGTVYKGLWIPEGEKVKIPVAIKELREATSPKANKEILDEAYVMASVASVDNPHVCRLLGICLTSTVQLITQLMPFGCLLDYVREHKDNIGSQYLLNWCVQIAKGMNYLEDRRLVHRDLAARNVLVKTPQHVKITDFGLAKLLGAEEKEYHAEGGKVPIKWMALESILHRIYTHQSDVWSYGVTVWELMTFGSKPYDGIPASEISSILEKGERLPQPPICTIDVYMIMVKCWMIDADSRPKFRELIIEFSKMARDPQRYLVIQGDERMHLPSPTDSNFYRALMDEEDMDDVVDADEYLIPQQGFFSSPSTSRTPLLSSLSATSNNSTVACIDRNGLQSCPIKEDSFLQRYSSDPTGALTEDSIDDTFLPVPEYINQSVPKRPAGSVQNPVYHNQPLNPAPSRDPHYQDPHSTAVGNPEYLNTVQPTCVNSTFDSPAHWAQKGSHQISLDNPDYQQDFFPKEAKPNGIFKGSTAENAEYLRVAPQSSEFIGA
How it was run: as §1

| Compound | pIC50 [1] | GI50 [2] [nM] | GI50 [3] [nM] |
| --- | --- | --- | --- |
| [2H]C([2H])([2H])N(CCN(C([2H])([2H])[2H])C([2H])([2H])[2H])c1cc(OC)c(Nc2ncc(C(=O)OC(C)C)c(N3CC(C)(C)c4nc(C)ccc43)n2)cc1NC(=O)C=C [Example 77, isopropyl 2-((5-acrylamido-4-((2-(bis(methyl-d3)amino)ethyl)(methyl-d3)amino)-2-methoxyphenyl)amino)-4-(3,3,5-tri-methyl-2,3-dihydro-1H-pyrrolo[3,2-b]pyridin-1-yl)pyrimidine-5-carboxylate] | 7.01 | 11.7 | 32.2 |
| [2H]C([2H])([2H])N(CCN(C([2H])([2H])[2H])C([2H])([2H])[2H])c1cc(OC)c(Nc2ncc(C(=O)OC(C)C)c(N3c4ccc(C)nc4C(C)(C)C3([2H])[2H])n2)cc1NC(=O)C=C [Example 78, isopropyl 2-((5-acrylamido-4-((2-(bis(methyl-d3)amino)ethyl)(methyl-d3)amino)-2-methoxyphenyl)amino)-4-(3,3,5-tri-methyl-2,3-dihydro-1H-pyrrolo[3,2-b]pyridin-1-yl-2,2-d2)pyrimidine-5-carboxylate] | 7.14 | 12.3 | 36.4 |
| C=CC(=O)Nc1cc(Nc2ncc(C(=O)OC(C)C)c(N3CC(C)(C)c4nc(C#CC)ccc43)n2)c(OC)cc1N1CCC[C@@H]1CN(C)C [Example 79, isopropyl (R)-2-((5-acrylamido-4-(2-((dimethyl-amino)methyl)pyrrolidin-1-yl)-2-meth-oxyphenyl)amino)-4-(3,3-dimethyl-5-(prop-1-yn-1-yl)-2,3-dihydro-1H-pyrrolo[3,2-b]pyridin-1-yl)pyrimidine-5-carboxylate] | 6.60 | 20.2 | 58.2 |
| C=CC(=O)Nc1cc(Nc2ncc(C(=O)OC(C)C)c(N3CC(C)(C)c4nc(C)ccc43)n2)c(OC(F)F)cc1N(C)CCN(C)C [Example 81, isopropyl 2-((5-acrylamido-2-(difluoromethoxy)-4-((2-(dimethylamino)eth-yl)(methyl)amino)phenyl)amino)-4-(3,3,5-trimethyl-2,3-dihydro-1H-pyrrolo[3,2-b]pyridin-1-yl)pyrimidine-5-carboxylate] | 6.89 | 9 | 29.3 |
| [2H]C1([2H])N(c2nc(Nc3cc(NC(=O)C=C)c(N4C[C@@H](F)C[C@@H]4CN(C)C)cc3OC)ncc2C(=O)OC(C)C)c2ccc(C)nc2C1(C)C [Example 82, isopropyl 2-((5-acrylamido-4-((2R,4S)-2-((di-methylamino)methyl)-4-fluoro-pyrrolidin-1-yl)-2-methoxy-phenyl)amino)-4-(3,3,5-trimethyl-2,3-dihydro-1H-pyrrolo[3,2-b]pyridin-1-yl-2,2-d2)pyrimidine-5-carboxylate] | 7.12 | 11.2 | 12.9 |
| C=CC(=O)Nc1cc(Nc2ncc(C(=O)OC(C)C)c(N3CC(C)(C)c4nc(C)ccc43)n2)c(OC)cc1N1CCC[C@@H]1CN(C)C [Example 83, isopropyl (R)-2-((5-acrylamido-4-(2-((dimethyl-amino)methyl)pyrrolidin-1-yl)-2-meth-oxyphenyl)amino)-4-(3,3,5-trimethyl-2,3-dihydro-1H-pyrrolo[3,2-b]pyridin-1-yl)pyrimidine-5-carboxylate] | 7.24 | 10.9 | 13.6 |
| C=CC(=O)Nc1cc(Nc2ncc(C(=O)OC(C)C)c(N3CC(C)(C)c4nc(C#CC)ccc43)n2)c(OC)cc1N1C[C@@H](F)C[C@@H]1CN(C)C [Example 84, isopropyl 2-((5-acrylamido-4-((2R,4S)-2-((di-methylamino)methyl)-4-fluoro-pyrrolidin-1-yl)-2-methoxy-phenyl)amino)-4-(3,3-dimethyl-5-(prop-1-yn-1-yl)-2,3-dihydro-1H-pyrrolo[3,2-b]pyridin-1-yl)pyrimidine-5-carboxylate] | 6.66 | 12 | 12.6 |
| C=CC(=O)Nc1cc(Nc2ncc(C(=O)OC(C)C)c(N3CC(C)(C)c4ccccc43)n2)c(OC)cc1N(C)CCN(C)C [Example 85, isopropyl 2-((5-acrylamido-4-((2-(dimethylami-no)ethyl)(methyl)amino)-2-methoxy-phenyl)amino)-4-(3,3-dimethylindolin-1-yl)pyrimidine-5-carboxylate] | 6.25 | 23.6 | 13.8 |
| C=CC(=O)Nc1cc(Nc2ncc(C(=O)OC(C)C)c(N3CC4(CC4)c4ncccc43)n2)c(OC)cc1N1CCC[C@@H]1CN(C)C [Example 86, isopropyl (R)-2-((5-acrylamido-4-(2-((dimethyl-amino)methyl)pyrrolidin-1-yl)-2-meth-oxyphenyl)amino)-4-(spiro(cyclopro-pane-1,3′-pyrrolo[3,2-b]pyridin)-1′(2′H)-yl)pyrimidine-5-carboxylate] | 7.85 | 9.8 | 8 |
| C=CC(=O)Nc1cc(Nc2ncc(C(=O)OC(C)C)c(N3CC(C)(C)c4ccccc43)n2)c(OC)cc1N1C[C@@H](F)C[C@@H]1CN(C)C [Example 87, isopropyl 2-((5-acrylamido-4-((2R,4S)-2-((di-methylamino)methyl)-4-fluoro-pyrrolidin-1-yl)-2-methoxy-phenyl)amino)-4-(3,3-dimethyl-indolin-1-yl)pyrimidine-5-carboxylate] | 7.24 | 25.8 | 12.5 |
| C=CC(=O)Nc1cc(Nc2ncc(C(=O)OC(C)C)c(N3CC(C)(C)c4ncccc43)n2)c(OC)cc1N1C[C@@H](F)C[C@@H]1CN(C)C [Example 88, isopropyl 2-((5-acrylamido-4-((2R,4S)-2-((di-methylamino)methyl)-4-fluoro-pyrrolidin-1-yl)-2-methoxy-phenyl)amino)-4-(3,3-dimethyl-2,3-dihydro-1H-pyrrolo[3,2-b]pyridin-1-yl)pyrimidine-5-carboxylate] | 7.68 | 15.4 | 9.2 |
| C=CC(=O)Nc1cc(Nc2ncc(C(=O)OC(C)C)c(N3CC(C)(C)c4nc(C#CC)ccc43)n2)c(OC)cc1N(C)CCN(CC)CC [Example 89, isopropyl 2-((5-acrylamido-4-((2-(diethyl-amino)ethyl)(methyl)amino)-2-methoxyphenyl)amino)-4-(3,3-dimethyl-5-(prop-1-yn-1-yl)-2,3-dihydro-1H-pyrrolo[3,2-b]pyridin-1-yl)pyrimidine-5-carboxylate] | 6.75 | 13.1 | 242 |
| C=CC(=O)Nc1cc(Nc2ncc(C(=O)OC(C)C)c(N3CC(C)(C)c4cc(F)c(F)cc43)n2)c(OC)cc1N(C)CCN(C)C [Example 91, isopropyl 2-((5-acrylamido-4-((2-(dimethylami-no)ethyl)(methyl)amino)-2-methoxy-phenyl)amino)-4-(5,6-difluoro-3,3-dimethylindolin-1-yl)pyrimidine-5-carboxylate] | 5.97 | 37.5 | 32.2 |
| C=CC(=O)Nc1cc(Nc2ncc(C(=O)OC(C)C)c(N3CC(C)(C)c4cc(F)c(F)cc43)n2)c(OC)cc1N1CCC[C@@H]1CN(C)C [Example 92, isopropyl (R)-2-((5-acrylamido-4-(2-((dimethyl-amino)methyl)pyrrolidin-1-yl)-2-meth-oxyphenyl)amino)-4-(5,6-difluoro-3,3-dimethylindolin-1-yl)pyrimidine-5-carboxylate] | 6.02 | 33.2 | 27.9 |
| C=CC(=O)Nc1cc(Nc2ncc(C(=O)OC(C)C)c(N3CC(C)(C)c4cc(F)c(F)cc43)n2)c(OC)cc1N1C[C@@H](F)C[C@@H]1CN(C)C [Example 93, isopropyl 2-((5-acrylamido-4-((2R,4S)-2-((di-methylamino)methyl)-4-fluoro-pyrrolidin-1-yl)-2-methoxy-phenyl)amino)-4-(5,6-difluoro-3,3-dimethylindolin-1-yl)pyrimidine-5-carboxylate] | 6.11 | 34.6 | 28.8 |
